# Tested on: Wnt pathway signaling
# Test: Wnt Assay (Super8xTopflash reporter assay)
# Type: cell-based
# Settings: 10T1/2 Super8xTopflash reporter cell line, Wnt3a in medium, luciferase signal read after 20-24 h; read-out: IC50, inhibition of Wnt pathway signaling activity
# Experimental: 10T1/2 Super8xTopflash reporter cell line was generated by stable transfection of a Super8xTopflash reporter plasmid containing 8 tandem repeats of TCF4 binding sites upstream of Luciferase gene. Cells were seeded at 20 K/well density (in normal growth medium with 10% FBS and 0.4 mg/ml G418) in white 96-well plates with clear bottom (BD Falcon Microtest Optilux plate, Ref. 353947) and grown for 20-24 hours. Fesh growth medium was prepared without G418 and with appropriate Wnt3a concentration (concentration that gave 40-50% of maximum activation based on the dose-response curve performed for each new batch of protein; typically ˜0.1 ug/ml).
# Old medium was removed from the 96-well plate, which was gently blotted on paper towel, then all relevant wells were replenished with fresh medium containing Wnt (100 ul/well).
# The wells with highest compound concentrations (usually 10 or 30 uM) were filled separately with 150 ul of prepared medium containing both Wnt3a and the test compounds. Using a multichannel pipetman, 50 ul was drawn from these wells and dispensed and mixed gently into the next row of wells to achieve 1:3 dilution of compounds. […]
# After 20-24 h the cells were lysed and the luciferase signal was read using Perkin Elmer luclite assay system, Cat. #6016911). […] Approximately 15 min later the plates were read on a TopCount machine.
structure (smiles),measurement,value
COc1ccc(CC(=O)N2CCC(c3ccc(NS(C)(=O)=O)cc3)=N2)cc1OC [compound 12],IC50,218 nM

# Reference: US20100137394A1, “PYRAZOLE INHIBITORS OF WNT SIGNALING” (Grenentech, Inc., priority 2007, published 2010)
